One data set deals with cytochrome P450. As to conditions: five days; for Effect of oral treatment on total CYP content: decrease seen at high dose, P≤0.05; for Total cytochrome content, High dose / Total cytochrome content, Low dose: male SD rats, oral, mean ± SD (n=5); for Total cytochrome content, High dose: one-tenth of LD50; for Total cytochrome content, Low dose: one-thirtieth of LD50.
For a further data set, the system named is CYP1A1/2. As to conditions: read-out: IC50 for CYP1A1/2; human microsomes; cited from earlier work.
Data set [1] concerns CYP3A. Briefly: Hepatic microsomal MDZH activity after oral administration for five days. As to conditions: five consecutive days, P≤0.05.
For data set [2], the system named is CYP1A. Briefly: Inhibition of ethoxyresorufin O-deethylation. It counts as in vitro ADME. As to conditions: rat hepatic microsomes; for Concentration that evidently inhibited EROD: Fig. 2.
A further data set has as its system CYP2B6. As to conditions: read-out: IC50 for CYP2B6; human microsomes; cited from earlier work.
The conditions of data set [3]: ref Food Safety Commission of Japan; cited from earlier work.
Another data set has as its system CYP2D6. As to conditions: read-out: IC50 for CYP2D6; human microsomes; cited from earlier work.
The test system of data set [4] is CYP2C. Briefly: Hepatic microsomal TBH activity after oral administration for five days. As to conditions: five consecutive days, P≤0.05.
In data set [5] the test system is CYP2D. Briefly: Hepatic microsomal BLH activity after oral administration for five days. As to conditions: five consecutive days, P≤0.05.
Data set [6] concerns CYP1A. Briefly: Hepatic microsomal EROD activity after oral administration for five days. As to conditions: five consecutive days, P≤0.05.
The test system of data set [7] is CYP3A. Briefly: Inhibition of midazolam 4-hydroxylation. The data set is classed as in vitro ADME, rat. As to conditions: at 1,000 µM.
Data set [8] has as its system CYP2D. Briefly: Inhibition of bufuralol 1'-hydroxylation. It counts as in vitro ADME, rat. As to conditions: at 1,000 µM.
Data set [9] has as its system CYP2C. Nature of the data set: Inhibition of tolbutamide hydroxylation. As to conditions: at 1,000 µM. It counts as in vitro ADME, rat.
The subject of the next data set is CYP2C8. As to conditions: read-out: IC50 for CYP2C8; human microsomes; cited from earlier work.
For a further data set, the system named is CYP2C9. As to conditions: read-out: IC50 for CYP2C9; human microsomes; cited from earlier work.
Data set [10] relates to CYP2D. As to conditions: read-out: Km of bufuralol reported in rats; cited from earlier work.
Data set [11] concerns CYP1A. As to conditions: read-out: Km of ethoxyresorufin reported in rats; cited from earlier work.
The subject of data set [12] is CYP1A. As to conditions: cited from earlier work.
For data set [13], the system named is CYP3A. As to conditions: read-out: Km of midazolam reported in rats; cited from earlier work.
Data set [14] concerns CYP2C. As to conditions: read-out: Km of tolbutamide reported in rats; cited from earlier work.
The test system of another data set is CYP. As to conditions: hen treated with tribufos; cited from earlier work.

Marks after values point to notes of the source that are not given here.

Turning to `CCOP(=S)(OCC)Oc1nc(Cl)c(Cl)cc1Cl` [Chlorpyrifos, chlorpyrifos], in the data set on cytochrome P450, the “Effect of oral treatment on total CYP content” value (“Effect of oral treatment” below) was “significantly decreased”; the “Total cytochrome content, High dose” value was 1.30 ± 0.48^a) nM/mg protein; the “Total cytochrome content, Low dose” value is 1.69 ± 0.18 nM/mg protein. For the same molecule, the IC50 in the data set on CYP1A1/2 was about 3000 nM. Besides, in the data set on CYP3A [1], the “Microsomal activity of MDZH compared with control group” value was “no significant effects”. Further, in the data set on CYP1A [2], the “Manner of EROD inhibition” value is given as “noncompetitive” and the “Concentration that evidently inhibited EROD” value is “less than 1 µM”. The IC50 in the data set on CYP2B6 was 2500 nM. Also, the “Acceptable daily intake (ADI)” value in [3] is 0.001 mg/kg/day. In addition, the IC50 in the data set with CYP2D6 was about 3000 nM. In addition, the “Microsomal activity of TBH compared with control group” value in the data set on CYP2C [4] is on record as “no significant effects”. For the same molecule, in the data set with CYP2D [5], the “Microsomal activity of BLH compared with control group” value is reported as “no significant effects”. Besides, the “Microsomal activity of EROD compared with control group” value in the data set with CYP1A [6] is “no significant effects”.

Turning to `COP(=O)(OC)OC=C(Cl)Cl` [Dichlorvos, dichlorvos], in the data set with cytochrome P450, the “Effect of oral treatment” value is reported as “not significantly affected”; the “Total cytochrome content, High dose” value was 1.75 ± 0.18 nM/mg protein; the “Total cytochrome content, Low dose” value was 1.69 ± 0.40 nM/mg protein. The “Inhibitory effect on MDZH” value in the data set on CYP3A [7] is recorded as “not evident”. Further, in the data set on CYP2D [8], the “Inhibitory effect on BLH” value was “not evident”. Also, the “Microsomal activity of MDZH compared with control group” value in the data set with CYP3A [1] is on record as “no significant effects”. In addition, the “Inhibitory effect on TBH” value in the data set on CYP2C [9] is “not evident”. Also, the “Microsomal activity of TBH compared with control group” value in the data set on CYP2C [4] was “no significant effects”. In the data set with CYP2D [5], the “Microsomal activity of BLH compared with control group” value was “no significant effects”. Besides, the “Microsomal activity of EROD compared with control group” value in the data set with CYP1A [6] is listed as “no significant effects”.

As to `COP(=S)(OC)Oc1ccc([N+](=O)[O-])c(C)c1` [Fenitrothion, fenitrothion], the “Effect of oral treatment” value in the data set on cytochrome P450 was “not significantly affected”. In addition, the “Total cytochrome content, High dose” value in the data set on cytochrome P450 is 1.18 ± 0.23 nM/mg protein. Moreover, the “Total cytochrome content, Low dose” value in the data set with cytochrome P450 was 1.38 ± 0.51 nM/mg protein. The IC50 was about 3000 nM in the data set with CYP1A1/2, 4300 nM in the data set with CYP2C8, 2500 nM with CYP2B6 and 4800 nM in the data set on CYP2C9. The “Microsomal activity of MDZH compared with control group” value in the data set on CYP3A [1] is reported as “significantly lower”. In the data set with CYP1A [2], the “Manner of EROD inhibition” value is recorded as “noncompetitive”. For the same molecule, in the data set on CYP1A [2], the “Concentration that evidently inhibited EROD” value was “less than 1 µM”. Besides, the “Acceptable daily intake (ADI)” value in data set [3] is given as 0.005 mg/kg/day. Further, the “Microsomal activity of TBH compared with control group” value in the data set with CYP2C [4] was “significantly higher”. Further, the “Microsomal activity of EROD compared with control group” value in the data set with CYP1A [6] is recorded as “significantly lower”.

Usually Km stands for the concentration of substrate that gives half-maximal velocity. As to `CCc1cccc2cc(C(O)CNC(C)(C)C)oc12` (stereo not shown) [bufuralol], the Km in the data set on CYP2D [10] is 6.4 µM.

In the case of `CCOc1ccc2nc3ccc(=O)cc-3oc2c1` [ethoxyresorufin], in the data set on CYP1A [11], the Km is 0.227 µM.

`CC1(C)C(C(=O)OC(C#N)c2cccc(Oc3ccccc3)c2)C1(C)C` (stereo not shown) [fenpropathrin]: in the data set with CYP1A [12], the “Effect on hepatic CYP1A” value is listed as “potent inhibitor of CYP1A”.

For the molecule `CCOC(=O)CC(SP(=S)(OC)OC)C(=O)OCC` (stereo not shown) [malathion], the IC50 with CYP2C9 is 2500 nM.

Regarding `Cc1ncc2n1-c1ccc(Cl)cc1C(c1ccccc1F)=NC2` [midazolam], the Km in the data set with CYP3A [13] is 22 µM.

Regarding `CC1(C)C(C=C(Cl)Cl)C1C(=O)OCc1cccc(Oc2ccccc2)c1` (stereo not shown) [permethrin], in the data set with CYP1A [12], the “Effect on hepatic CYP1A” value was “potent inhibitor of CYP1A”.

As for `CCOC(=O)C(SP(=S)(OC)OC)c1ccccc1` (stereo not shown) [phenthoate], the IC50 with CYP2D6 is about 3000 nM.

As for `CCCSP(=O)(OCC)Oc1ccc(Br)cc1Cl` (stereo not shown) [profenofos], in the data set on CYP1A1/2, the IC50 is about 3000 nM.

`CCCCNC(=O)NS(=O)(=O)c1ccc(C)cc1` [tolbutamide]: the Michaelis constant (Km) in the data set on CYP2C [14] is 1910 µM.

For the molecule `CCCCSP(=O)(SCCCC)SCCCC` [tribufos, S,S,S-tri-n-butyl phosphorotrithioate], the “Increase of CYP content in hepatic microsomes” value in the data set with CYP is reported as 2–3 fold.

Values taken from publication PMC7273600 (The Journal of Veterinary Medical Science, 2020).
